From a compilation of properties of binary mixtures (doi:10.1098/rsos.241459/v2/response1)

Assay: xn = mol fraction of the nth substance listed
Conditions: 298.15 K, 100 kPa

electrical conductivity (x2 = 0) [S/m] | viscosity (x2 = 0) [mPa·s] | viscosity (x1 = 0.0895) [mPa·s] | electrical conductivity (x1 = 0.1758) [S/m] | viscosity (x1 = 0.1758) [mPa·s] | electrical conductivity (x1 = 0.3578) [S/m] | viscosity (x1 = 0.3578) [mPa·s] | electrical conductivity (x1 = 0.4397) [S/m] | viscosity (x1 = 0.4397) [mPa·s] | electrical conductivity (x1 = 0.6482) [S/m] | viscosity (x1 = 0.6482) [mPa·s] | viscosity (x1 = 0.8121) [mPa·s] | SMILES
0.001 | 17.41 | – | – | – | – | – | – | – | – | – | – | OCCO + CCCC[n+]1ccn(C)c1.F[B-](F)(F)F
– | – | 15.5 | 0.63 | 15.52 | 0.727 | 18.87 | 0.766 | 21.3 | 0.577 | 31.97 | 51.8 | CCCC[n+]1ccn(C)c1.F[B-](F)(F)F + OCCO
